Assay results taken from patent publication US5698411A, “Method for determining activity of enzymes in metabolically active whole cells” (priority 1995, dated 1997).

Legend:
lymphocytes [1] = experiment: enzyme activity with fluorogenic substrate, normal lymphocytes (Table 3A); type: cell-based, human
monocytes [2] = experiment: enzyme activity with fluorogenic substrate, normal monocytes (Table 3A); type: cell-based, human
granulocytes [3] = experiment: enzyme activity with fluorogenic substrate, normal granulocytes (Table 3A); type: cell-based, human
erythrocytes = experiment: enzyme activity with fluorogenic substrate, normal erythrocytes (Table 3B); type: cell-based, human
lymphocytes [4] = experiment: aberrant enzyme activities in febrile children, lymphocytes (Table 7); type: cell-based, human
monocytes [5] = experiment: aberrant enzyme activities in febrile children, monocytes (Table 7); type: cell-based, human
granulocytes [6] = experiment: aberrant enzyme activities in febrile children, granulocytes (Table 7); type: cell-based, human
[7] = system: substituted rhodamine 110 substrates; experiment: modulator effect on substituted rhodamine 110 substrates; type: biochemical
Description: Modulators are components used to […] the sensitivity of the enzyme for the leaving group. The modulators speed up or slow down the activity of an enzyme by changing the active site. […] Preferred modulators for particular enzymes are included in Table 1.

[8] = system: metabolically active whole cell; experiment: substrate panel in normals and HIV + patients, TB infection (Table 4); type: cell-based, human; parameters: unit not given here
Experimental: A panel of assay compounds are assembled consisting of Ala-aminopeptidase and Lys-aminopeptidase, Dipeptidyl peptidase IV (Ala-Ala)2 rhodamine 110 and Cathepsin D to indicate possible TB infection in AIDS related cases.
A panel Of enzymatic substrates is performed consisting of Ala-aminopeptidase and Lys-aminopeptidase, Dipeptidyl peptidase IV (Ala-Ala)2 rhodamine 110 and Cathepsin D to indicate possible TB infection in AIDS related cases.

lymphocytes [9] = experiment: peptidase activity in leukemia and non-leukemia patients, lymphocytes (Table 6C); type: cell-based, human; parameters: unit not given here
granulocytes [10] = experiment: peptidase activity in leukemia and non-leukemia patients, granulocytes (Table 6C); type: cell-based, human; parameters: unit not given here

Compound: CC(=O)Oc1cc2c(cc1Cl)C(c1ccccc1C(=O)O)c1cc(Cl)c(OC(C)=O)cc1O2 [DCFH-DA MES, reference compound]
- NORMAL LEUKOCYTE ENZYME ACTIVITY LYMPHS Mean (lymphocytes [1]): 4.11
- NORMAL LEUKOCYTE ENZYME ACTIVITY MONOS Mean (monocytes [2]): 12.28
- NORMAL LEUKOCYTE ENZYME ACTIVITY GRANS Mean (granulocytes [3]): 7.49
- NORMAL E[…] ACTIVITY MEAN (erythrocytes): 0.286
- aberrant enzyme activity, LYMPHS (lymphocytes [4]; P88 Enteritis): .smallcircle.
- aberrant enzyme activity, LYMPHS (lymphocytes [4]; P89 Viral Stomatitis): + (>0.25 Increase over normal range)
- aberrant enzyme activity, LYMPHS (lymphocytes [4]; P92 Adenitis): + (>0.25 Increase over normal range)
- aberrant enzyme activity, LYMPHS (lymphocytes [4]; P95 Viral Syndrome): + (>0.25 Increase over normal range)
- aberrant enzyme activity, LYMPHS (lymphocytes [4]; P96 Viral Syndrome): + (>0.25 Increase over normal range)
- aberrant enzyme activity, LYMPHS (lymphocytes [4]; P97 Pyelonephritis): .smallcircle.
- aberrant enzyme activity, LYMPHS (lymphocytes [4]; P99 Viral Syndrome): .smallcircle.
- aberrant enzyme activity, LYMPHS (lymphocytes [4]; P101 Fever -- Unknown Origin): + (>0.25 Increase over normal range)
- aberrant enzyme activity, LYMPHS (lymphocytes [4]; P102 UTI): .smallcircle.
- aberrant enzyme activity, LYMPHS (lymphocytes [4]; P103 Viral Syndrome): + (>0.25 Increase over normal range)
- aberrant enzyme activity, MONOS (monocytes [5]; P88 Enteritis): .smallcircle.
- aberrant enzyme activity, MONOS (monocytes [5]; P89 Viral Stomatitis): + (>0.25 Increase over normal range)
- aberrant enzyme activity, MONOS (monocytes [5]; P92 Adenitis): + (>0.25 Increase over normal range)
- aberrant enzyme activity, MONOS (monocytes [5]; P95 Viral Syndrome): + (>0.25 Increase over normal range)
- aberrant enzyme activity, MONOS (monocytes [5]; P96 Viral Syndrome): + (>0.25 Increase over normal range)
- aberrant enzyme activity, MONOS (monocytes [5]; P97 Pyelonephritis): + (>0.25 Increase over normal range)
- aberrant enzyme activity, MONOS (monocytes [5]; P99 Viral Syndrome): .smallcircle.
- aberrant enzyme activity, MONOS (monocytes [5]; P101 Fever -- Unknown Origin): + (>0.25 Increase over normal range)
- aberrant enzyme activity, MONOS (monocytes [5]; P102 UTI): .smallcircle.
- aberrant enzyme activity, MONOS (monocytes [5]; P103 Viral Syndrome): + (>0.25 Increase over normal range)
- aberrant enzyme activity, GRANS (granulocytes [6]; P88 Enteritis): .smallcircle.
- aberrant enzyme activity, GRANS (granulocytes [6]; P89 Viral Stomatitis): + (>0.25 Increase over normal range)
- aberrant enzyme activity, GRANS (granulocytes [6]; P92 Adenitis): + (>0.25 Increase over normal range)
- aberrant enzyme activity, GRANS (granulocytes [6]; P95 Viral Syndrome): + (>0.25 Increase over normal range)
- aberrant enzyme activity, GRANS (granulocytes [6]; P96 Viral Syndrome): + (>0.25 Increase over normal range)
- aberrant enzyme activity, GRANS (granulocytes [6]; P97 Pyelonephritis): + (>0.25 Increase over normal range)
- aberrant enzyme activity, GRANS (granulocytes [6]; P99 Viral Syndrome): .smallcircle.
- aberrant enzyme activity, GRANS (granulocytes [6]; P101 Fever -- Unknown Origin): + (>0.25 Increase over normal range)
- aberrant enzyme activity, GRANS (granulocytes [6]; P102 UTI): .smallcircle.
- aberrant enzyme activity, GRANS (granulocytes [6]; P103 Viral Syndrome): + (>0.25 Increase over normal range)

Compound: O=C1OC2(c3ccc(OC4O[C@H](CO)[C@@H](O)[C@H](O)[C@H]4O)cc3Oc3cc(OC4O[C@H](CO)[C@@H](O)[C@H](O)[C@H]4O)ccc32)c2ccccc21 (stereo partly drawn) [DIGLUC (FL)]
- NORMAL LEUKOCYTE ENZYME ACTIVITY LYMPHS Mean (lymphocytes [1]): 0.23
- NORMAL LEUKOCYTE ENZYME ACTIVITY GRANS Mean (granulocytes [3]): 0.45
- NORMAL E[…] ACTIVITY MEAN (erythrocytes): 0.110

Compound: O[C@H](CS)[C@H](O)CS [Dithiothreitol (DTT), Dithiothreitol]
- modulator effect [7]: effective modulator

Compound: CC(=O)Oc1ccc2c(c1)Oc1cc(OC(C)=O)ccc1C21OC(=O)c2ccccc21 [FDA, fluorescein diacetate, reference compound]
- NORMAL LEUKOCYTE ENZYME ACTIVITY LYMPHS Mean (lymphocytes [1]): 13.38
- NORMAL LEUKOCYTE ENZYME ACTIVITY MONOS Mean (monocytes [2]): 66.25
- NORMAL E[…] ACTIVITY MEAN (erythrocytes): 0.126
- aberrant enzyme activity, LYMPHS (lymphocytes [4]; P88 Enteritis): .smallcircle.
- aberrant enzyme activity, LYMPHS (lymphocytes [4]; P97 Pyelonephritis): .smallcircle.
- aberrant enzyme activity, LYMPHS (lymphocytes [4]; P99 Viral Syndrome): .smallcircle.
- aberrant enzyme activity, LYMPHS (lymphocytes [4]; P102 UTI): .smallcircle.
- aberrant enzyme activity, MONOS (monocytes [5]; P88 Enteritis): .smallcircle.
- aberrant enzyme activity, MONOS (monocytes [5]; P99 Viral Syndrome): .smallcircle.
- aberrant enzyme activity, MONOS (monocytes [5]; P102 UTI): .smallcircle.
- aberrant enzyme activity, GRANS (granulocytes [6]; P88 Enteritis): .smallcircle.
- aberrant enzyme activity, GRANS (granulocytes [6]; P99 Viral Syndrome): .smallcircle.
- aberrant enzyme activity, GRANS (granulocytes [6]; P102 UTI): .smallcircle.

Compound: O[C@H](CS)[C@@H](O)CS [dithioerythritol (DTE), dithioerythritol]
- sensitivity of the leaving group for the enzyme ([7]; 1 mM, Ala-Gly and Leu-Gly substrates): does not change the sensitivity
- sensitivity of the substituted rhodamine 110 substrates ([7]; 1 mM, Pro, Gly, Gln-Ser, Val-Lys-Val-Lys, Ala-Ala, Ala-Ala-Ala-Ala substrates): decreases the sensitivity

Compound: (Gly)2 Rho 110
- NORMAL LEUKOCYTE ENZYME ACTIVITY LYMPHS Mean (lymphocytes [1]): 18.18
- NORMAL LEUKOCYTE ENZYME ACTIVITY MONOS Mean (monocytes [2]): 61.47
- NORMAL LEUKOCYTE ENZYME ACTIVITY GRANS Mean (granulocytes [3]): 29.48
- MEAN DELTA FL ([8]; HIV + PATIENTS): 62.4
- MEAN DELTA FL ([8]; NORMALS): 101.1
- enzyme activity, Lymphs (lymphocytes [9]; J4 11/21/91 acute leuk.): 14.02
- enzyme activity, Lymphs (lymphocytes [9]; J4 12/2/91 A L): 27.32
- enzyme activity, Lymphs (lymphocytes [9]; J4 12/3/91 acute leuk.): 31.51
- enzyme activity, Lymphs (lymphocytes [9]; J5 11/27/91 A M L): 28.36
- enzyme activity, Lymphs (lymphocytes [9]; J19 11/27/91 C L L): 11.39
- enzyme activity, Lymphs (lymphocytes [9]; J22 12/2/91 A M L): 24.50
- enzyme activity, Lymphs (lymphocytes [9]; J22 12/9/91 A M L): 27.14
- enzyme activity, Lymphs (lymphocytes [9]; N191 normal): 43.57
- enzyme activity, Lymphs (lymphocytes [9]; N192 normal): 37.47
- enzyme activity, Lymphs (lymphocytes [9]; N193 normal): 39.30
- enzyme activity, Lymphs (lymphocytes [9]; N194 normal): 39.76
- enzyme activity, Lymphs (lymphocytes [9]; N195 normal): 48.18
- enzyme activity, Lymphs (lymphocytes [9]; N197 normal): 42.96
- enzyme activity, Lymphs (lymphocytes [9]; N199 normal): 30.68
- enzyme activity, Lymphs (lymphocytes [9]; N200 normal): 42.28
- enzyme activity, Lymphs (lymphocytes [9]; N201 normal): 45.32
- enzyme activity, Lymphs (lymphocytes [9]; N202 normal): 44.55
- enzyme activity, Lymphs (lymphocytes [9]; N206 normal): 55.56
- enzyme activity, Lymphs (lymphocytes [9]; P68 tachycardia): 59.29
- enzyme activity, Lymphs (lymphocytes [9]; P69 pancreatic CA): 67.38
- enzyme activity, Lymphs (lymphocytes [9]; P70 cirrhosis/hemobilia): 54.84
- enzyme activity, Lymphs (lymphocytes [9]; P71 ac. pyelonephritis): 41.93
- enzyme activity, Grans (granulocytes [10]; J4 11/21/91 acute leuk.): 27.79
- enzyme activity, Grans (granulocytes [10]; J4 12/2/91 A L): 47.74
- enzyme activity, Grans (granulocytes [10]; J4 12/3/91 acute leuk.): 48.53
- enzyme activity, Grans (granulocytes [10]; J5 11/27/91 A M L): 56.33
- enzyme activity, Grans (granulocytes [10]; J19 11/27/91 C L L): 48.80
- enzyme activity, Grans (granulocytes [10]; J22 12/2/91 A M L): 34.02
- enzyme activity, Grans (granulocytes [10]; J22 12/9/91 A M L): 38.47
- enzyme activity, Grans (granulocytes [10]; N191 normal): 73.20
- enzyme activity, Grans (granulocytes [10]; N192 normal): 48.67
- enzyme activity, Grans (granulocytes [10]; N193 normal): 63.33
- enzyme activity, Grans (granulocytes [10]; N194 normal): 60.30
- enzyme activity, Grans (granulocytes [10]; N195 normal): 79.13
- enzyme activity, Grans (granulocytes [10]; N197 normal): 76.88
- enzyme activity, Grans (granulocytes [10]; N199 normal): 45.00
- enzyme activity, Grans (granulocytes [10]; N200 normal): 59.39
- enzyme activity, Grans (granulocytes [10]; N201 normal): 75.48
- enzyme activity, Grans (granulocytes [10]; N202 normal): 66.22
- enzyme activity, Grans (granulocytes [10]; N206 normal): 91.93
- enzyme activity, Grans (granulocytes [10]; P68 tachycardia): 100.00
- enzyme activity, Grans (granulocytes [10]; P69 pancreatic CA): 88.04
- enzyme activity, Grans (granulocytes [10]; P70 cirrhosis/hemobilia): 88.42
- enzyme activity, Grans (granulocytes [10]; P71 ac. pyelonephritis): 59.35
- aberrant enzyme activity, LYMPHS (lymphocytes [4]; P88 Enteritis): .smallcircle.
- aberrant enzyme activity, LYMPHS (lymphocytes [4]; P89 Viral Stomatitis): - (>0.25 Decrease over normal range)
- aberrant enzyme activity, LYMPHS (lymphocytes [4]; P92 Adenitis): .smallcircle.
- aberrant enzyme activity, LYMPHS (lymphocytes [4]; P97 Pyelonephritis): .smallcircle.
- aberrant enzyme activity, LYMPHS (lymphocytes [4]; P102 UTI): .smallcircle.
- aberrant enzyme activity, LYMPHS (lymphocytes [4]; P103 Viral Syndrome): .smallcircle.
- aberrant enzyme activity, MONOS (monocytes [5]; P88 Enteritis): .smallcircle.
- aberrant enzyme activity, MONOS (monocytes [5]; P89 Viral Stomatitis): .smallcircle.
- aberrant enzyme activity, MONOS (monocytes [5]; P92 Adenitis): .smallcircle.
- aberrant enzyme activity, MONOS (monocytes [5]; P97 Pyelonephritis): + (>0.25 Increase over normal range)
- aberrant enzyme activity, MONOS (monocytes [5]; P103 Viral Syndrome): .smallcircle.
- aberrant enzyme activity, GRANS (granulocytes [6]; P88 Enteritis): .smallcircle.
- aberrant enzyme activity, GRANS (granulocytes [6]; P89 Viral Stomatitis): .smallcircle.
- aberrant enzyme activity, GRANS (granulocytes [6]; P92 Adenitis): .smallcircle.
- aberrant enzyme activity, GRANS (granulocytes [6]; P97 Pyelonephritis): .smallcircle.
- aberrant enzyme activity, GRANS (granulocytes [6]; P102 UTI): .smallcircle.
- aberrant enzyme activity, GRANS (granulocytes [6]; P103 Viral Syndrome): .smallcircle.

Compound: (Z-Thr--Pro)2 Rho 110 [Z-TP 8.7]
- NORMAL LEUKOCYTE ENZYME ACTIVITY LYMPHS Mean (lymphocytes [1]): 35.01
- NORMAL LEUKOCYTE ENZYME ACTIVITY MONOS Mean (monocytes [2]): 76.00
- NORMAL LEUKOCYTE ENZYME ACTIVITY GRANS Mean (granulocytes [3]): 82.35
- NORMAL E[…] ACTIVITY MEAN (erythrocytes): 0.161
- aberrant enzyme activity, LYMPHS (lymphocytes [4]; P92 Adenitis): - (>0.25 Decrease over normal range)
- aberrant enzyme activity, LYMPHS (lymphocytes [4]; P97 Pyelonephritis): .smallcircle.
- aberrant enzyme activity, LYMPHS (lymphocytes [4]; P103 Viral Syndrome): .smallcircle.
- aberrant enzyme activity, MONOS (monocytes [5]; P92 Adenitis): - (>0.25 Decrease over normal range)
- aberrant enzyme activity, MONOS (monocytes [5]; P97 Pyelonephritis): .smallcircle.
- aberrant enzyme activity, MONOS (monocytes [5]; P103 Viral Syndrome): .smallcircle.
- aberrant enzyme activity, GRANS (granulocytes [6]; P92 Adenitis): .smallcircle.
- aberrant enzyme activity, GRANS (granulocytes [6]; P97 Pyelonephritis): .smallcircle.
- aberrant enzyme activity, GRANS (granulocytes [6]; P103 Viral Syndrome): .smallcircle.
